Assay results reported in US20210283107A1, “Methods to Expand the Spectrum of Gram-Positive Antibiotics” (NORTH CAROLINA STATE UNIVERSITY, priority 2016, published 2021).
Converted amounts (≈) assume the structure as drawn. “And” between values parts separate entries of the source, which are not always exact repeats. Identical values can stand only once.

Tests used:
[1] = system: A. baumannii strain 5075 (AB5075); assay: Broth microdilution MIC determination of compound alone; type: cell-based; conditions: Acinetobacter baumannii; compound alone; AB5075; read-out: MIC
Procedure: Our initial screening began by testing a diverse selection of 2-AI compounds from our internal library for their minimal inhibitory concentrations (MIC) against A. baumannii isolate 5075.
(§1) Day Cultures (6 h) were subcultured to 5×10^5 CFU/mL in cation adjusted Mueller-Hinton broth (CAMHB). Aliquots (1 mL) were placed in culture tubes, and compound was added from 100 mM stock solutions, such that the compound concentration equaled the highest concentration tested (200 μM or 64 μg/mL). Samples were then aliquoted (200 μL) into the first row of wells of a 96-well plate, with all remaining wells being filled with 100 μL of initial bacterial subculture. The wells in row one were mixed five times before 100 μL was transferred to the following row (row two). Row two was then mixed five times, and 100 μL was transferred to row three. This processed was repeated until the final row had been mixed. This process provided a serial dilution of the compound. Plates were covered with Glad Press n'Seal and were incubated under stationary conditions at 37° C. for 16 hours. MIC values were recorded as the lowest concentration at which no bacterial growth was observed.

[2] = system: A. baumannii strain 5075 (AB5075); assay: Macrolide sensitization / antibiotic resensitization: antibiotic MIC in presence of compound (broth microdilution); type: cell-based, Acinetobacter baumannii; conditions: AB5075; for MIC: Acinetobacter baumannii, antibiotic alone, no compound (control row), read-out: MIC (μg/mL) of the antibiotic
Procedure: A. baumannii 5075 was plated on LB agar, then grown in CAMHB for 6-8 h and this culture was used to inoculate fresh CAMHB (5×10^5 CFU/mL). The resulting suspension was aliquoted (5 mL) into culture tubes and compound, from 100 mM DMSO stock, was added. One aliquot was not treated (control). 1 mL of each sample was transferred to a new culture tube and antibiotic was added. Rows 2-12 of a 96-well microtiter plate were filled with 100 μL/well from the remaining 4 mL bacterial subcultures, allowing the concentration of compound to be kept uniform throughout the antibiotic dilution procedure. Samples containing antibiotic were aliquoted (200 μL) into the corresponding first row wells of the microtiter plate. Row 1 wells were mixed 6 to 8 times then 100 μL was withdrawn and transferred to row 2. Row 2 wells were mixed 6 to 8 times, followed by a 100 μL transfer from row 2 to row 3. This procedure was repeated to serially dilute the rest of the rows of the microtiter plate, with the exception of the final row, to which no antibiotic was added (to check for growth of bacteria in the presence of compound alone). The microtiter plate was then covered, placed in a covered damp plastic container and incubated under stationary conditions at 37° C. After 16-18 hrs minimum inhibitory concentration (MIC) values were recorded as the lowest concentration of antibiotic at which there was no visible growth of bacteria. Experiments were carried out in duplicate each time and repeated at least twice.
The difference in antibiotic MIC between the control (no compound) sample, and the samples containing each compound was recorded as the fold-reduction.
Day Cultures (6 h) were subcultured to 5×10^5 CFU/mL in cation adjusted Mueller-Hinton broth (CAMHB). […] One milliliter of the resulting solution was aliquoted into a separate culture tube and was dosed with antibiotic so that the resulting concentration was the highest desirable concentration to be tested. Bacteria treated with antibiotic alone were used as a control. Row one of a 96-well plate was filled with 200 μL of the antibiotic/compound solution, and the remaining rows were filled with 100 μL of the remaining 4 mL bacterial subculture. The wells in row one were mixed five times before 100 μL was transferred to the following row (row two). Row two was then mixed five times, and 100 μL was transferred to row three. This process was repeated until the second to last row had been reached. The last row is left unexposed to antibiotic in order to serve as a negative control. The antibiotic only treated bacteria was plated by aliquoting 200 μL of the treated bacteria into row one and filling the remaining rows with untreated bacteria from the original bacteria subculture. The rows were mixed in the same way as described above. Plates were covered with Glad Press n'Seal and were incubated under stationary conditions at 37° C. for 16 hours. MIC values were recorded as the lowest concentration at which no bacterial growth was observed. Fold reductions were determined by comparison of the compound treated wells with the antibiotic only treated control wells.

AB5075 = assay: H33342 accumulation assay (efflux); type: cell-based, Acinetobacter baumannii; conditions: for H33342 accumulation, fluorescence at 355 and 460 nm: 25 μM CCCP, immediately following exposure
Procedure: In addition to the evaluation of the relationship between compounds 1 and 4 and colistin, the impact of compound 1 on efflux was evaluated using AB5075 and a bisBenzimide H33342 trihydrochloride (H33342) accumulation assay. Using a procedure adapted from Coldham et al. (A 96-well plate fluorescence assay for assessment of cellular permeability and active efflux in Salmonella enterica serovar Typhimurium and Escherichia coli. J Antimicrob Chemother, 2010. 65(8): p. 1655-63) and Richmond et al. (Efflux in Acinetobacter baumannii can be determined by measuring accumulation of H33342 (bis-benzamide). J Antimicrob Chemother, 2013. 68(7): p. 1594-600), the effect of no treatment, a known inhibitor carbonyl cyanide-m-chlorophenyl hydrazone (CCCP), and compound 1 on efflux was analyzed over 30 minutes and in two different treatment variations. Fluorescence was read using excitation and emission filters of 355 and 460 nm, and the values were processed in excel. The first analysis was performed immediately after treating the bacteria with compound 1 at both 10 and 30 μM and CCCP at 25 μM.
The second analysis was performed after exposing the bacteria to compound 1 at 30 μM for 5-hours shaking at 37° C.

AB 5075 = assay: Backlight assay for membrane permeability; type: cell-based, Acinetobacter baumannii; conditions: AB5075
Procedure: The assay was initially performed at 10, 20 and 30 μM with compounds 1 and 4 (Table 16). […] When the concentration is lowered to 20 μM, the percent of membrane disrupted also decreases to 78% and 83% respectively. When further decreasing the concentration to 10 μM, the membrane disruption decreases to 39 and 44% respectively. Due to the similar structure and lack of potentiation activity, compound 25 was screened at 10, 20 and 30 μM to compare membrane permeability with that of active compounds. The percent disruption was less than seen with compounds 1 and 4 being 53, 54 and 60% respectively.

[3] = system: A. baumannii mutant AB1310; assay: MIC against Tn-seq transposon mutant AB1310; type: cell-based; conditions: Acinetobacter baumannii
Procedure: (§2) During individual MIC screening, two mutants, AB522 and AB1310, were identified due to their increased sensitivity to the three macrolide antibiotics and vancomycin when compared to AB 5075 (Table 17).
as §1

[4] = system: A. baumannii mutant AB522; assay: MIC against Tn-seq transposon mutant AB522; type: cell-based; conditions: Acinetobacter baumannii
Procedure: as §2, §1

[5] = compound at 60 μM vs antibiotic alone
[6] = compound at 30 μM vs antibiotic alone
[7] = in presence of compound at 30 μM

Row | SMILES | MIC [1] | Fold reduction (erythromycin MIC) [2, 5] | also measured
1 | CCCCCCC(=O)Nc1cccc(-c2c[nH]c(N)n2)c1.Cl [Compound 11] | > 200 µM | 4 fold | 
2 | N#CC(C#N)=NNc1cccc(Cl)c1 [CCCP, carbonyl cyanide-m-chlorophenyl hydrazone, reference compound] |  |  | H33342 accumulation, fluorescence at 355 and 460 nm (AB5075; time 0 minutes): 42,713.8 ± 10,482.1; H33342 accumulation, fluorescence at 355 and 460 nm (AB5075; time 10 minutes): 50,618.3 ± 9,944.3; H33342 accumulation, fluorescence at 355 and 460 nm (AB5075; time 20 minutes): 50,928.8 ± 6,944.8; H33342 accumulation, fluorescence at 355 and 460 nm (AB5075; time 30 minutes): 48,907.2 ± 4,873; change in H33342 fluorescence over 30 minutes (AB5075; immediately after treating, compound 1 at both 10 and 30 μM, CCCP at 25 μM): a notable increase in fluorescence
3 | Nc1nc(-c2ccc(NC(=O)c3ccc(Cl)cc3Cl)cc2)c[nH]1 [Compound 20] | > 200 µM | 4 fold | 
4 | Nc1nc(-c2ccc(NC(=O)c3c(F)c(F)c(F)c(F)c3F)cc2)c[nH]1 [Compound 17] | > 200 µM | 4 fold | 
5 | Nc1nc(-c2ccc(NC(=O)c3ccc(I)cc3)cc2)c[nH]1 [Compound 25] | > 200 µM |  | Disrupted bacterial membrane (%) (AB 5075; compound at 10 μM): 53% and 53.7%; Disrupted bacterial membrane (%) (AB 5075; compound at 20 μM): 54%; Disrupted bacterial membrane (%) (AB 5075; compound at 30 μM): 60%
6 | CCCCCC(=O)Nc1ccc(-c2c[nH]c(N)n2)cc1.Cl [Compound 3] | > 200 µM | 16 fold | Fold reduction (azithromycin MIC) [2, 5]: 8 fold; Fold reduction (clarithromycin MIC) [2, 5]: 32 fold; Azithromycin MIC ([2]; in presence of compound at 60 μM): 8 µg/mL
7 | CCCCCc1ccc(C(=O)NCCn2cc(CCCCCc3cnc(N)n3Cc3ccc(CCCC)cc3)nn2)cc1 [Compound 7] | 200 µM (≈ 117 µg/mL) | 4 fold | 
8 | CCCCCCCCCCn1c(CCCCCC)cnc1N.Cl [Compound 12] | 100 µM | 4 fold | 
9 | Nc1nc(-c2ccc(NC(=O)c3ccc(Br)cc3)cc2)c[nH]1 [Compound 18] | > 200 µM | 4 fold | 
10 | CCCCCCc1ccc(-c2nc(N)[nH]c2CCCCCC)cc1 | > 200 µM |  | 
11 | CC[C@H]1OC(=O)[C@H](C)[C@@H](O[C@H]2C[C@@](C)(OC)[C@@H](O)[C@H](C)O2)[C@H](C)[C@@H](O[C@@H]2O[C@H](C)C[C@H](N(C)C)[C@H]2O)[C@](C)(O)C[C@@H](C)C(=O)[C@H](C)[C@@H](O)[C@]1(C)O [Erythromycin] |  |  | MIC [3]: 4 µg/mL (≈ 5.45 µM); MIC [4]: 2 µg/mL (≈ 2.73 µM); MIC [2]: 32 µg/mL
12 | CCOc1ccc(Cn2c(CCCCCc3cn(CCNC(=O)c4ccc(C)cc4)nn3)cnc2N)cc1OCC | 100 µM (≈ 56 µg/mL) |  | 
13 | Cl.Nc1ncc(CCCCCc2ccccc2)[nH]1 [Compound 13] | 200 µM |  | Fold reduction (erythromycin MIC) [2, 6]: 4 fold
14 | Cl.Nc1nc(-c2ccc(NC(=O)/C=C/c3ccccc3)cc2)c[nH]1 [Compound 2] | 100 µM |  | Fold reduction (azithromycin MIC) [2, 6]: 4 fold; Fold reduction (clarithromycin MIC) [2, 6]: 32 fold; Fold reduction (erythromycin MIC) [2, 6]: 8 fold; Azithromycin MIC [2, 7]: 16 µg/mL
15 | CCCCCCCCCCNC(=O)Cn1cc(CCCCCc2c[nH]c(N)n2)nn1.Cl [Compound 6] | > 200 µM | 4 fold | 
16 | CCCCCCC(CCCCCC)NC(=O)CCCc1c[nH]c(N)n1 | 100 µM (≈ 35.1 µg/mL) |  | 
17 | Nc1nc(-c2ccc(NC(=O)c3cc(F)cc(F)c3)cc2)c[nH]1 [Compound 15] | 200 µM (≈ 62.9 µg/mL) | 8 fold | 
18 | Nc1nc(-c2ccc(NC(=O)c3ccc(Br)cc3F)cc2)c[nH]1 [Compound 21] | > 200 µM | 8 fold | 
19 | Nc1nc2cc(NC(=O)c3c(F)c(F)c(F)c(F)c3F)ccc2[nH]1 | > 200 µM |  | 
20 | CC[C@H]1OC(=O)[C@H](C)[C@@H](O[C@H]2C[C@@](C)(OC)[C@@H](O)[C@H](C)O2)[C@H](C)[C@@H](O[C@@H]2O[C@H](C)C[C@H](N(C)C)[C@H]2O)[C@](C)(O)C[C@@H](C)CN(C)[C@H](C)[C@@H](O)[C@]1(C)O [Azithromycin, azithromycin] |  |  | MIC [3]: 4 µg/mL (≈ 5.34 µM); MIC [4]: 4 µg/mL (≈ 5.34 µM); MIC [2]: 64 µg/mL

Further lines, with some results ahead:

Row | MIC [1] | SMILES | Fold reduction (erythromycin MIC) [2, 5] | also measured
21 | 100 µM | CCCCCCCCCCCNC(=O)CCCc1c[nH]c(C)n1.Cl [Compound 5] |  | Fold reduction (azithromycin MIC) [2, 6]: 8 fold; Fold reduction (clarithromycin MIC) [2, 6]: 256 fold; Fold reduction (erythromycin MIC) [2, 6]: 16 fold; Azithromycin MIC [2, 7]: 8 µg/mL
22 | > 200 µM | Nc1nc(-c2ccc(NC(=O)c3cccc(Br)c3)cc2)c[nH]1 [Compound 19] | 8 fold | 
23 | 100 µM (≈ 33.2 µg/mL) | Nc1nc(-c2ccc(NC(=O)c3cc(F)c(F)c(F)c3)cc2)c[nH]1 [Compound 8] |  | Fold reduction (clarithromycin MIC) [2, 6]: 32 fold; Fold reduction (erythromycin MIC) [2, 6]: 8 fold
24 | 25 µM (≈ 9.11 µg/mL) | Nc1nc(-c2ccc(NC(=O)c3ccc(C(F)(F)F)c(F)c3)cc2)c[nH]1 [Compound 24] |  | 
25 | > 200 µM | CCCCCCC/C=C\CCCCCCCc1c[nH]c(N)n1 |  | 
26 | > 200 µM | Nc1nc(-c2ccc(NC(=O)c3cccc(F)c3)cc2)c[nH]1 [Compound 14] | 8 fold | 
27 | 100 µM (≈ 24.3 µg/mL) | CCCCCCc1ccc(-c2c[nH]c(N)n2)cc1 |  | 
28 | 100 µM (≈ 34.7 µg/mL) | Nc1nc(-c2ccc(NC(=O)c3ccc(Cl)c(Cl)c3)cc2)c[nH]1 [Compound 9] |  | Fold reduction (clarithromycin MIC) [2, 6]: 64 fold; Fold reduction (erythromycin MIC) [2, 6]: 16 fold
29 | > 200 µM | Nc1nc(-c2ccc(NC(=O)c3ccc(Cl)cc3)cc2)c[nH]1 [Compound 16] | 4 fold | 
